According to the supplement of paper PMC10307832:

How the values were obtained:
Assay in all cases: relative viability (nuclei count vs DMSO), 5 days (fraction); higher = more cells survive
[1] = system: NCI-H596
Procedure, shortened: (§1)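 Lung cancer cell lines, seeded in 1536-well plates, were treated the following day by pin tool with a single drug or with five library-drug doses (not always all listed) in √10 steps on top of a fixed anchor-drug dose. Cells were fixed and nuclei stained in one step after 5 days, and nuclei were counted. Relative viability is the nuclei count for treated wells divided by that for vehicle wells, reported as medians of duplicate plates.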

[2] = system: EKVX
Procedure, shortened: as §1

[3] = system: NCI-H2009
Procedure, shortened: as §1

[4] = system: LC-2-ad
Procedure, shortened: as §1

[5] = system: NCI-H1395
Procedure, shortened: as §1

[6] = system: NCI-H1355
Procedure, shortened: as §1

[7] = system: NCI-H647
Procedure, shortened: as §1

[8] = system: NCI-H2405
Procedure, shortened: as §1

[9] = system: SK-MES-1
Procedure, shortened: as §1

[10] = system: NCI-H1792
Procedure, shortened: as §1

[11] = system: HARA
Procedure, shortened: as §1

[12] = system: SK-LU-1
Procedure, shortened: as §1

[13] = system: HCC-366
Procedure, shortened: as §1

[14] = system: NCI-H2228
Procedure, shortened: as §1

[15] = system: NCI-H2087
Procedure, shortened: as §1

[16] = system: HCC-827
Procedure, shortened: as §1

[17] = system: LOU-NH91
Procedure, shortened: as §1

[18] = system: BEN
Procedure, shortened: as §1

[19] = system: NCI-H1437
Procedure, shortened: as §1

[20] = system: NCI-H661
Procedure, shortened: as §1

[21] = system: NCI-H1734
Procedure, shortened: as §1

How did the relative viability ([1]; first compound 0.01 µM) turn out when NC(=O)Nc1cc(-c2cccc(F)c2)sc1C(=O)N[C@H]1CCCNC1 [AZD7762] + C[C@]1(O)C[C@@H](c2nc(-c3ccc4ccc(-c5ccccc5)nc4c3)c3c(N)nccn32)C1 [Linsitinib] (partner 1 µM) was run?
Its relative viability is 1.04.

What about the relative viability ([1]; first compound 0.03162 µM) of the same molecule?
The relative viability was 1.04.

What about the relative viability ([1]; first compound 0.1 µM) of the same molecule?
Its relative viability is 1.03.

What about the relative viability ([1]; first compound 0.3162 µM) of the same molecule?
Its relative viability is 1.1.

And the relative viability ([1]; first compound 1 µM)?
The relative viability was 0.923.

What about the relative viability ([2]; first compound 0.01 µM) of the same molecule?
The relative viability was 0.972.

What about the relative viability ([2]; first compound 0.03162 µM) of the same molecule?
The relative viability was 0.971.

What about the relative viability ([2]; first compound 0.1 µM) of the same molecule?
Its relative viability is 0.844.

What about the relative viability ([2]; first compound 0.3162 µM) of the same molecule?
Its relative viability is 0.873.

And the relative viability ([2]; first compound 1 µM)?
Its relative viability is 0.507.

What about the relative viability ([3]; first compound 0.01 µM) of the same molecule?
Its relative viability is 1.32.

What about the relative viability ([3]; first compound 0.03162 µM) of the same molecule?
The relative viability was 1.18.

What about the relative viability ([3]; first compound 0.1 µM) of the same molecule?
Its relative viability is 1.27.

And the relative viability ([3]; first compound 0.3162 µM)?
The relative viability was 1.22.

And the relative viability ([3]; first compound 1 µM)?
Its relative viability is 0.752.

And the relative viability ([4]; first compound 0.01 µM)?
Its relative viability is 0.854.

And the relative viability ([4]; first compound 0.03162 µM)?
The relative viability was 0.929.

And the relative viability ([4]; first compound 0.1 µM)?
Its relative viability is 0.787.

And the relative viability ([4]; first compound 0.3162 µM)?
The relative viability was 0.674.

What about the relative viability ([4]; first compound 1 µM) of the same molecule?
Its relative viability is 0.437.

And the relative viability ([5]; first compound 0.01 µM)?
The relative viability was 1.16.

And the relative viability ([5]; first compound 0.03162 µM)?
Its relative viability is 1.09.

What about the relative viability ([5]; first compound 0.1 µM) of the same molecule?
The relative viability was 0.966.

What about the relative viability ([5]; first compound 0.3162 µM) of the same molecule?
The relative viability was 0.579.

And the relative viability ([5]; first compound 1 µM)?
Its relative viability is 0.481.

And the relative viability ([6]; first compound 0.01 µM)?
The relative viability was 0.805.

What about the relative viability ([6]; first compound 0.03162 µM) of the same molecule?
The relative viability was 0.811.

What about the relative viability ([6]; first compound 0.1 µM) of the same molecule?
Its relative viability is 0.766.

And the relative viability ([6]; first compound 0.3162 µM)?
Its relative viability is 0.859.

And the relative viability ([6]; first compound 1 µM)?
Its relative viability is 0.762.

And the relative viability ([7]; first compound 0.01 µM)?
The relative viability was 1.37.

What about the relative viability ([7]; first compound 0.03162 µM) of the same molecule?
The relative viability was 1.3.

And the relative viability ([7]; first compound 0.1 µM)?
The relative viability was 1.05.

What about the relative viability ([7]; first compound 0.3162 µM) of the same molecule?
Its relative viability is 0.462.

And the relative viability ([7]; first compound 1 µM)?
The relative viability was 0.153.

And the relative viability ([8]; first compound 0.01 µM)?
The relative viability was 1.

What about the relative viability ([8]; first compound 0.03162 µM) of the same molecule?
Its relative viability is 0.929.

What about the relative viability ([8]; first compound 0.1 µM) of the same molecule?
Its relative viability is 0.86.

And the relative viability ([8]; first compound 0.3162 µM)?
Its relative viability is 0.655.

What about the relative viability ([8]; first compound 1 µM) of the same molecule?
Its relative viability is 0.402.

And the relative viability ([9]; first compound 0.01 µM)?
Its relative viability is 1.06.

What about the relative viability ([9]; first compound 0.03162 µM) of the same molecule?
Its relative viability is 1.12.

And the relative viability ([9]; first compound 0.1 µM)?
The relative viability was 1.11.

And the relative viability ([9]; first compound 0.3162 µM)?
The relative viability was 1.04.

And the relative viability ([9]; first compound 1 µM)?
Its relative viability is 0.414.

What about the relative viability ([10]; first compound 0.01 µM) of the same molecule?
The relative viability was 0.604.

What about the relative viability ([10]; first compound 0.03162 µM) of the same molecule?
Its relative viability is 0.588.

What about the relative viability ([10]; first compound 0.1 µM) of the same molecule?
The relative viability was 0.624.

What about the relative viability ([10]; first compound 0.3162 µM) of the same molecule?
Its relative viability is 0.599.

And the relative viability ([10]; first compound 1 µM)?
The relative viability was 0.707.

What about the relative viability ([11]; first compound 0.01 µM) of the same molecule?
Its relative viability is 0.961.

What about the relative viability ([11]; first compound 0.03162 µM) of the same molecule?
Its relative viability is 0.934.

And the relative viability ([11]; first compound 0.1 µM)?
The relative viability was 0.847.

And the relative viability ([11]; first compound 0.3162 µM)?
The relative viability was 0.854.

And the relative viability ([11]; first compound 1 µM)?
The relative viability was 0.617.

And the relative viability ([12]; first compound 0.01 µM)?
The relative viability was 1.1.

What about the relative viability ([12]; first compound 0.03162 µM) of the same molecule?
The relative viability was 0.804.

And the relative viability ([12]; first compound 0.1 µM)?
Its relative viability is 0.358.

And the relative viability ([12]; first compound 0.3162 µM)?
Its relative viability is 0.218.

What about the relative viability ([12]; first compound 1 µM) of the same molecule?
The relative viability was 0.251.

And the relative viability ([13]; first compound 0.01 µM)?
The relative viability was 0.587.

And the relative viability ([13]; first compound 0.03162 µM)?
Its relative viability is 0.666.

What about the relative viability ([13]; first compound 0.1 µM) of the same molecule?
The relative viability was 0.607.

What about the relative viability ([13]; first compound 0.3162 µM) of the same molecule?
The relative viability was 0.255.

And the relative viability ([13]; first compound 1 µM)?
Its relative viability is 0.0442.

And the relative viability ([14]; first compound 0.01 µM)?
The relative viability was 0.792.

And the relative viability ([14]; first compound 0.03162 µM)?
The relative viability was 0.478.

What about the relative viability ([14]; first compound 0.1 µM) of the same molecule?
The relative viability was 0.734.

What about the relative viability ([14]; first compound 0.3162 µM) of the same molecule?
The relative viability was 0.289.

And the relative viability ([14]; first compound 1 µM)?
Its relative viability is 0.242.

What about the relative viability ([15]; first compound 0.01 µM) of the same molecule?
Its relative viability is 0.995.

And the relative viability ([15]; first compound 0.03162 µM)?
Its relative viability is 0.986.

And the relative viability ([15]; first compound 0.1 µM)?
Its relative viability is 1.07.

And the relative viability ([15]; first compound 0.3162 µM)?
Its relative viability is 1.03.

And the relative viability ([15]; first compound 1 µM)?
The relative viability was 1.17.

And the relative viability ([16]; first compound 0.01 µM)?
The relative viability was 1.06.

What about the relative viability ([16]; first compound 0.03162 µM) of the same molecule?
The relative viability was 0.994.

What about the relative viability ([16]; first compound 0.1 µM) of the same molecule?
The relative viability was 0.922.

And the relative viability ([16]; first compound 0.3162 µM)?
The relative viability was 0.961.

What about the relative viability ([16]; first compound 1 µM) of the same molecule?
The relative viability was 0.863.

What about the relative viability ([17]; first compound 0.01 µM) of the same molecule?
The relative viability was 1.01.

What about the relative viability ([17]; first compound 0.03162 µM) of the same molecule?
Its relative viability is 0.966.

What about the relative viability ([17]; first compound 0.1 µM) of the same molecule?
The relative viability was 0.933.

What about the relative viability ([17]; first compound 0.3162 µM) of the same molecule?
Its relative viability is 0.794.

What about the relative viability ([17]; first compound 1 µM) of the same molecule?
The relative viability was 0.57.

What about the relative viability ([18]; first compound 0.01 µM) of the same molecule?
The relative viability was 1.04.

And the relative viability ([18]; first compound 0.03162 µM)?
Its relative viability is 0.892.

And the relative viability ([18]; first compound 0.1 µM)?
The relative viability was 0.797.

And the relative viability ([18]; first compound 0.3162 µM)?
The relative viability was 0.829.

What about the relative viability ([18]; first compound 1 µM) of the same molecule?
Its relative viability is 0.643.

And the relative viability ([19]; first compound 0.01 µM)?
The relative viability was 1.06.

What about the relative viability ([19]; first compound 0.03162 µM) of the same molecule?
The relative viability was 0.991.

What about the relative viability ([19]; first compound 0.1 µM) of the same molecule?
The relative viability was 0.982.

What about the relative viability ([19]; first compound 0.3162 µM) of the same molecule?
Its relative viability is 1.04.

And the relative viability ([19]; first compound 1 µM)?
Its relative viability is 0.86.

What about the relative viability ([20]; first compound 0.01 µM) of the same molecule?
The relative viability was 0.681.

What about the relative viability ([20]; first compound 0.03162 µM) of the same molecule?
Its relative viability is 0.546.

And the relative viability ([20]; first compound 0.1 µM)?
The relative viability was 0.444.

What about the relative viability ([20]; first compound 0.3162 µM) of the same molecule?
The relative viability was 0.501.

And the relative viability ([20]; first compound 1 µM)?
The relative viability was 0.293.

And the relative viability ([21]; first compound 0.01 µM)?
Its relative viability is 0.885.

What about the relative viability ([21]; first compound 0.03162 µM) of the same molecule?
The relative viability was 0.887.

And the relative viability ([21]; first compound 0.1 µM)?
Its relative viability is 1.05.

And the relative viability ([21]; first compound 0.3162 µM)?
The relative viability was 0.869.

And the relative viability ([21]; first compound 1 µM)?
Its relative viability is 0.734.
